The test system of one data set is MRSA-1. Briefly: MIC, clinical isolate of S. aureus. To be noted: Staphylococcus aureus; clinical isolate MRSA-1; read-out: MIC. The format is cell-based. In outline:
(§1)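 Panel: Gram-pos. ATCC strains plus clinical S. aureus isolates (MSSA, MRSA). Test cpds: thiosemicarbazides. Ref. antibiotics: amoxicillin, gentamicin, levofloxacin, linezolid, vancomycin.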

The test system of the next data set is MSSA-1. Put plainly: MIC, clinical isolate of S. aureus. The format is cell-based. To be noted: Staphylococcus aureus; clinical isolate MSSA-1; read-out: MIC. In outline:
as §1

The test system of the next data set is MSSA-2. Briefly: MIC, clinical isolate of S. aureus. The data set is classed as cell-based. To be noted: Staphylococcus aureus; clinical isolate MSSA-2; read-out: MIC. In outline:
as §1

The subject of another data set is MSSA-3. Put plainly: MIC, clinical isolate of S. aureus. The data set is classed as cell-based. To be noted: Staphylococcus aureus; clinical isolate MSSA-3; read-out: MIC. In outline:
as §1

The next data set has as its system MSSA-4. Briefly: MIC, clinical isolate of S. aureus. The format is cell-based. To be noted: Staphylococcus aureus; clinical isolate MSSA-4; read-out: MIC. In outline: as §1
Another data set in a line: MTT cytotoxicity assay. The data set is classed as cell-based, human. Particulars: human, Hs27 foreskin fibroblast cells (ATCC CRL-1634), 25 µg/mL, 24 h, vehicle control = 100%. For orientation: Tetrazolium assays rely on reduction of a dye to a coloured formazan, in cell work by metabolically active cells.
Data set [1] deals with human foreskin fibroblast Hs27 cells (CRL-1634). Briefly: MTT cytotoxicity assay. The format is cell-based. Particulars: Homo sapiens, 24 h of treatment.
The test system of data set [2] is HeLa cell line. Put plainly: Cytotoxicity (earlier study). The format is cell-based. To be noted: HeLa IC30 / MIC S. aureus ATCC 25923. The text has this:
(§2) For the compound with the best solubility (2), its cytotoxicity against L929 and HeLa cells was presented previously. The cytotoxicity was expressed as rigorous IC30 values, defined as the highest dilutions of test samples that cause 30% or greater destruction of cells.

Data set [3] has as its system L929 cell line. Briefly: Cytotoxicity (earlier study). The data set is classed as cell-based. Particulars: L929 IC30 / MIC S. aureus ATCC 25923.
Source text: as §2

Data set [4] relates to S. aureus ATCC 25923. Put plainly: Checkerboard broth dilution synergy assay. The data set is classed as cell-based. In outline:
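Checkerboard broth microdilution against S. aureus ATCC 25923 paired each thiosemicarbazide with amoxicillin, gentamicin, levofloxacin, linezolid or vancomycin. FICI is the sum of each drug's MIC in combination divided by its MIC alone: ≤0.5 synergy, 0.5–1 additive, 1–4 indifferent, ≥4 antagonism.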

The subject of another data set is S. aureus ATCC 6538. Details: method as in PMID 25897586. To be noted: S. a. ATCC 6538; compounds 1–5; cited from earlier work.
Data set [5] deals with S. aureus ATCC 25923. More on the design: method as in PMID 25897586. Particulars: S. a. ATCC 25923; compounds 1–5; cited from earlier work.
Data set [6] deals with S. epidermidis ATCC 12228. More on the design: method as in PMID 25897586. To be noted: S. e. ATCC 12228; compounds 1–5; cited from earlier work.
The test system of the next data set is B. subtilis ATCC 6633. More on the design: method as in PMID 25897586. To be noted: B. s. ATCC 6633; compounds 1–5; cited from earlier work.
The next data set concerns B. cereus ATCC 10876. More on the design: method as in PMID 25897586. Particulars: B. c. ATCC 10876; compounds 1–5; cited from earlier work.
The next data set relates to M. luteus ATCC 10240. Details: method as in PMID 25897586. To be noted: M. l. ATCC 10240; compounds 1–5; cited from earlier work.
Data set [7] relates to L929 cell line. More on the design: method as in PMID 25897586. To be noted: IC30 = 30% or greater destruction of cells; cited from earlier work.
Data set [8] concerns HeLa cell line. More on the design: method as in PMID 25897586. To be noted: IC30 = 30% or greater destruction of cells; cited from earlier work.

Converted amounts (≈) assume the structure as drawn. Bounds are passed on as bounds.

The text below walks through data of publication PMC7288171, “Synergistic Effects of Thiosemicarbazides with Clinical Drugs against S. aureus” (Molecules, 2020).

For orientation: MIC means the least concentration at which growth counts as inhibited. The viability is the share of living cells, or the viability signal relative to a control. High values mean better survival, low ones a greater loss of cells. Broadly, the IC50 is the concentration needed to halve the response being measured. For orientation: IC30 means the concentration needed for an effect of 30%.

With `Cc1cccc(C(=O)NC(=S)NNC(=O)c2cccc(Cl)c2Cl)c1` [compound 2], the MIC with MRSA-1 was 500 µg/mL (≈ 1310 µM); in the data set on MSSA-1 it was over 500 µg/mL; in the data set on MSSA-2 it was over 500 µg/mL; in the data set on MSSA-3 it was over 500 µg/mL; in the data set with MSSA-4, 500 µg/mL (≈ 1310 µM); in the data set on S. aureus ATCC 6538, 7.81 µg/mL (≈ 20.4 µM). The MIC is 7.81 µg/mL (≈ 20.4 µM) in the data set on S. aureus ATCC 25923 [5]; 3.91 µg/mL (≈ 10.2 µM) in data set [6]; 0.49 µg/mL (≈ 1.28 µM) in the data set on B. subtilis ATCC 6633; 1.95 µg/mL (≈ 5.1 µM) in the data set on B. cereus ATCC 10876; 0.98 µg/mL (≈ 2.56 µM) with M. luteus ATCC 10240. The compound also returned a viability at 24 h, 25 µg/mL in “MTT cytotoxicity assay” of 76.7%. The IC50 in data set [1] is over 25 µg/mL. Moreover, the figures for the “selectivity index SI (SI = IC30/MIC)” value with HeLa cell line [2] and in the data set on L929 cell line [3] were 3.97 and 3.94, respectively. Moreover, the “interaction in combination” value in the data set on S. aureus ATCC 25923 [4] (combination with amoxicillin) is “additive”; with S. aureus ATCC 25923 [4] (combination with gentamicin), “no interactions”; in the data set on S. aureus ATCC 25923 [4] (combination with levofloxacin) it was “no interactions”; in the data set with S. aureus ATCC 25923 [4] (combination with linezolid), “synergistic”; in the data set with S. aureus ATCC 25923 [4] (combination with vancomycin), “no interactions”. For the same compound, the figures for the 30% effect concentration (IC30) in the data set with L929 cell line [7] and in the data set with HeLa cell line [8] were 30.78 µg/mL (≈ 80.5 µM) and 30.97 µg/mL (≈ 81 µM), respectively.
